This note sets out measurements from patent US10323018B2 (Millennium Pharmaceuticals, Inc., priority 2015, dated 2019).

Where only a bound is given, the exact number is not on record here.

In one experiment the target is hNAMPT protein (Homo sapiens (Human), UniProt P43490). Kind of experiment: NAMPT enzyme assay (TR-FRET/HTRF with BodiPY ligand). In kind it is binding. The note with it: for inhibition at 1 µM: NAMPT inhibition at compound concentration 1 μM, read-out: Percent Inhibition; for IC50: NAMPT inhibition, IC50 range class. In a few lines: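 Ligand displacement by TR-FRET: BodiPY emission (520 nm) over terbium (486 nm) after 320 nm excitation. Compound, BodiPY ligand, hNAMPT and anti-6His-Tb incubated 1 h at room temperature, dark, at pH 7.5. Percent inhibition computed versus DMSO; concentration-response curves fitted for IC50.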
hNAMPT protein, sequence (P43490 whole entry): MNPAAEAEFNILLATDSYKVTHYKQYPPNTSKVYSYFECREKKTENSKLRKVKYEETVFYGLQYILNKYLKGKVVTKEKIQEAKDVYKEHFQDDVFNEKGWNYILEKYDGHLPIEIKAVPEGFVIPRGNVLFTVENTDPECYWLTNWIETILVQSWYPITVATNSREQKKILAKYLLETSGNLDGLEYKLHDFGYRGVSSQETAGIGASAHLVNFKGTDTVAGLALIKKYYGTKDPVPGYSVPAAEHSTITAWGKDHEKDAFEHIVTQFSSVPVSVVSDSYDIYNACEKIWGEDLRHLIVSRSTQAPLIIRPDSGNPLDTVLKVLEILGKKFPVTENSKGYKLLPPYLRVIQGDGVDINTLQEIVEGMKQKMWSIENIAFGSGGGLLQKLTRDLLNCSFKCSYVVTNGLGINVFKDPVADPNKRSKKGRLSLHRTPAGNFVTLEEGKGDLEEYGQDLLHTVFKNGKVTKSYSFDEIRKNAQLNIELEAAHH
Background: Time-resolved FRET reads energy transfer from a long-lived donor to a nearby acceptor.

Another experiment concerns PC3 cells. The experiment can be described thus: PC3 growth inhibition (Cell-titer glo, 72 hours). The note with it: Homo sapiens, PC-3, 72 h, read-out: Percent Viability, PC3 cells, compound concentration 1.667 μM, 72 hours. In kind it is cell-based. In a few lines: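 After 72 h compound treatment in AIM serum-free medium (37 °C, 5% CO2), viability of overnight-plated PC3 cells (8×10^4 cells/ml, RPMI1640-maintained) is read by CellTiter-Glo luminescence versus DMSO. Curves give GI50, LD50 or single-concentration % remaining viability.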

For the compound `CCOc1cc(-c2cccnc2OC)nc2cc(C(=O)NCCc3cnn[nH]3)ccc12` [Compound I-190, 4-ethoxy-2-(2-methoxypyridin-3-yl)-N-[2-(1H-1,2,3-triazol-5-yl)ethyl]quinoline-7-carboxamide], at hNAMPT protein, the inhibition at 1 µM amounted to 94% and the half-maximal inhibitory concentration (IC50) lay in the range of 50 to 100 nM. In addition, the viability at 1.667 µM with PC3 cells was 5%.
For `CCOc1cc(-c2cc(OC)ncc2Cl)nc2cc(C(=O)NCCCc3nnc[nH]3)ccc12` [Compound I-164, 2-(5-chloro-2-methoxypyridin-4-yl)-4-ethoxy-N-[3-(4H-1,2,4-triazol-3-yl)propyl]quinoline-7-carboxamide], at hNAMPT protein, the inhibition at 1 µM came out at 97% and the IC50 was less than 10 nM. The viability at 1.667 µM in the experiment with PC3 cells was 2%.
Turning to `CCOc1nc(-c2ccc(F)cc2)nc2cc(C(=O)NCC(C)Cc3ncc[nH]3)ccc12` (stereo not drawn) [Compound I-18, 4-ethoxy-2-(4-fluorophenyl)-N-[3-(1H-imidazol-2-yl)-2-methylpropyl]quinazoline-7-carboxamide], on hNAMPT protein, the inhibition at 1 µM worked out at 99% and the half-inhibitory concentration (IC50) is 10 to 50 nM. The viability at 1.667 µM in the experiment with PC3 cells worked out at 0%.
For the compound `O=C(NCCCc1ncc[nH]1)c1ccc2c(OCCO)cc(-c3ccc(F)cc3)nc2c1` [Compound I-229, 2-(4-fluorophenyl)-4-(2-hydroxyethoxy)-N-[3-(1H-imidazol-2-yl)propyl]quinoline-7-carboxamide], at hNAMPT protein, the inhibition at 1 µM came to 99% and the IC50 is less than 10 nM. For the same compound, the viability at 1.667 µM in the experiment on PC3 cells was 2%.
As to `Cc1cc(-c2cc(-c3ccc(F)cc3)c3ccc(C(=O)NCCCc4nnc[nH]4)cc3n2)ccn1` [Compound I-157, N-(3-(4H-1,2,4-triazol-3-yl)propyl)-4-(4-fluorophenyl)-2-(2-methylpyridin-4-yl)quinoline-7-carboxamide], at hNAMPT protein, the inhibition at 1 µM was 89% and the concentration for half-maximal inhibition (IC50) lay within 50 to 100 nM. Also, the viability at 1.667 µM with PC3 cells turned out to be 5%.
On the same counts, the results for `CCOc1cc(-c2ccnc(OC)c2)nc2cc(C(=O)NCCCc3[nH]nnc3C)ccc12` [Compound I-71, 4-ethoxy-2-(2-methoxypyridin-4-yl)-N-[3-(4-methyl-1H-1,2,3-triazol-5-yl)propyl]quinoline-7-carboxamide] are 97%, 10 to 50 nM and 2%.
For `COCCOc1cc(-c2ccc(F)cc2)nc2cc(C(=O)NCCCc3n[nH]nc3C)ccc12` [Compound I-66, 2-(4-fluorophenyl)-4-(2-methoxyethoxy)-N-[3-(5-methyl-2H-1,2,3-triazol-4-yl)propyl]quinoline-7-carboxamide], in that order: 94%, 10 to 50 nM and 2%.
Consider `CCOc1cc(-c2ccc(OC)nc2)nc2cc(C(=O)NCCCc3cnn[nH]3)ccc12` [Compound I-102, 4-ethoxy-2-(6-methoxypyridin-3-yl)-N-[3-(1H-1,2,3-triazol-5-yl)propyl]quinoline-7-carboxamide], for which, on hNAMPT protein, the inhibition at 1 µM was found to be 99% and the half-maximal inhibitory concentration (IC50) is less than 10 nM. Moreover, the viability at 1.667 µM in the experiment with PC3 cells turned out to be 2%.
With `CCOc1cc(-c2ccnc(C(F)(F)F)c2)nc2cc(C(=O)NCCCc3nnc[nH]3)ccc12` [Compound I-218, 4-ethoxy-N-[3-(4H-1,2,4-triazol-3-yl)propyl]-2-[2-(trifluoromethyl)pyridin-4-yl]quinoline-7-carboxamide], at hNAMPT protein, the inhibition at 1 µM came out at 93% and the IC50 fell in the range of 50 to 100 nM. Further, in the experiment with PC3 cells, the viability at 1.667 µM came to 2%.
As to `CCOc1cc(-c2ccc(=O)n(C)c2)nc2cc(C(=O)NCCCc3[nH]nnc3C)ccc12` [Compound I-97, 4-ethoxy-2-(1-methyl-6-oxo-1,6-dihydropyridin-3-yl)-N-[3-(4-methyl-1H-1,2,3-triazol-5-yl)propyl]quinoline-7-carboxamide], at hNAMPT protein, the inhibition at 1 µM is more than 99% and the IC50 lay within 10 to 50 nM. For the same compound, in the experiment with PC3 cells, the viability at 1.667 µM amounted to 2%.
Consider `CCOc1cc(-c2cc(F)ccc2OC)nc2cc(C(=O)NCCc3nnc[nH]3)ccc12` [Compound I-182, 4-ethoxy-2-(5-fluoro-2-methoxyphenyl)-N-[2-(4H-1,2,4-triazol-3-yl)ethyl]quinoline-7-carboxamide], for which, at hNAMPT protein, the inhibition at 1 µM was determined as 77% and the IC50 was more than 100 nM. Moreover, the viability at 1.667 µM in the experiment on PC3 cells is 5%.
For the compound `CCOc1cc(-c2ccc(F)cc2)nc2cc(C(=O)NCCCc3ncc[nH]3)ccc12` [Compound I-15, 4-ethoxy-2-(4-fluorophenyl)-N-[3-(1H-imidazol-2-yl)propyl]quinoline-7-carboxamide], at hNAMPT protein, the inhibition at 1 µM is more than 99% and the half-maximal inhibitory concentration (IC50) was less than 10 nM. For the same compound, in the experiment on PC3 cells, the viability at 1.667 µM worked out at 2%.
With `CCNc1cc(-c2ccc(F)cc2)nc2cc(C(=O)NCCCc3nnc[nH]3)ccc12` [Compound I-151, 4-(ethylamino)-2-(4-fluorophenyl)-N-[3-(4H-1,2,4-triazol-3-yl)propyl]quinoline-7-carboxamide], at hNAMPT protein, the inhibition at 1 µM was 61% and the IC50 is more than 100 nM. For the same compound, in the experiment on PC3 cells, the viability at 1.667 µM turned out to be 3%.
For `CCOc1cc(-c2cccnc2C)nc2cc(C(=O)NCCCc3nnc[nH]3)ccc12` [Compound I-213, 4-ethoxy-2-(2-methylpyridin-3-yl)-N-[3-(4H-1,2,4-triazol-3-yl)propyl]quinoline-7-carboxamide], in that order: 87%, more than 100 nM and 1%.
On to `CCOc1cc(-c2cc(F)ccc2OC)nc2cc(C(=O)NCc3nc4cnccc4[nH]3)ccc12` [Compound I-187, 4-ethoxy-2-(5-fluoro-2-methoxyphenyl)-N-(1H-imidazo[4,5-c]pyridin-2-ylmethyl)quinoline-7-carboxamide], for which, on hNAMPT protein, the inhibition at 1 µM is more than 99% and the concentration for half-maximal inhibition (IC50) is less than 10 nM. Also, the viability at 1.667 µM with PC3 cells stood at 3%.
On the same counts, the results for `CCOc1cc(-c2cc(OC)ncc2F)nc2cc(C(=O)NCCCc3ncc[nH]3)ccc12` [Compound I-12, 4-ethoxy-2-(5-fluoro-2-methoxypyridin-4-yl)-N-[3-(1H-imidazol-2-yl)propyl]quinoline-7-carboxamide] are more than 99%, less than 10 nM and 1%.
Regarding `CC(C)Cc1nc(-c2ccc(Cl)s2)nc2cc(C(=O)NCCCc3ncc[nH]3)ccc12` [Compound I-23, 2-(5-chloro-2-thienyl)-N-[3-(1H-imidazol-2-yl)propyl]-4-isobutylquinazoline-7-carboxamide], on hNAMPT protein, the inhibition at 1 µM was more than 99% and the IC50 is 10 to 50 nM. In addition, the viability at 1.667 µM in the experiment with PC3 cells amounted to 1%.
For `CCCc1nc(-c2ccc(Cl)s2)nc2cc(C(=O)NCCCc3ncc[nH]3)ccc12` [Compound I-24, 2-(5-chloro-2-thienyl)-N-[3-(1H-imidazol-2-yl)propyl]-4-propylquinazoline-7-carboxamide], on hNAMPT protein, the inhibition at 1 µM was more than 99% and the half-maximal inhibitory concentration (IC50) is less than 10 nM. Further, the viability at 1.667 µM in the experiment on PC3 cells was 1%.
Turning to `CCOc1cc(C2CCOCC2)nc2cc(C(=O)NCCCc3nnc[nH]3)ccc12` [Compound I-135, 4-ethoxy-2-(tetrahydro-2H-pyran-4-yl)-N-[3-(4H-1,2,4-triazol-3-yl)propyl]quinoline-7-carboxamide], on hNAMPT protein, the inhibition at 1 µM came out at 71% and the IC50 is more than 100 nM. Moreover, the viability at 1.667 µM in the experiment with PC3 cells came to 4%.
On the same counts, the results for `CCOc1cc(-c2ccc(=O)n(C)c2)nc2cc(C(=O)NCCc3c[nH]nc3C)ccc12` [Compound I-98, 4-ethoxy-2-(1-methyl-6-oxo-1,6-dihydropyridin-3-yl)-N-[2-(3-methyl-1H-pyrazol-4-yl)ethyl]quinoline-7-carboxamide] are 99%, 50 to 100 nM and 1%.
On to `CC(C)Oc1cc(-c2ccc(F)cc2)nc2cc(C(=O)NCCCc3ncc[nH]3)ccc12` [Compound I-17, 2-(4-fluorophenyl)-N-[3-(1H-imidazol-2-yl)propyl]-4-isopropoxyquinoline-7-carboxamide], for which, on hNAMPT protein, the inhibition at 1 µM turned out to be 99% and the IC50 is less than 10 nM. Further, the viability at 1.667 µM in the experiment on PC3 cells amounted to 0%.
For the compound `CCOc1cc(-c2ccnc(C)c2)nc2cc(C(=O)NCc3ccc4ncnn4c3)ccc12` [Compound I-74, 4-ethoxy-2-(2-methylpyridin-4-yl)-N-([1,2,4]triazolo[1,5-a]pyridin-6-ylmethyl)quinoline-7-carboxamide], on hNAMPT protein, the inhibition at 1 µM worked out at 100% and the IC50 is less than 10 nM. The viability at 1.667 µM in the experiment with PC3 cells was 1%.
Consider `CCOc1cc(-c2ccc(C)nc2)nc2cc(C(=O)NCCc3nnc[nH]3)ccc12` [Compound I-168, 4-ethoxy-2-(6-methylpyridin-3-yl)-N-[2-(4H-1,2,4-triazol-3-yl)ethyl]quinoline-7-carboxamide], for which, on hNAMPT protein, the inhibition at 1 µM was 95% and the IC50 fell in the range of 10 to 50 nM. In addition, in the experiment on PC3 cells, the viability at 1.667 µM stood at 2%.
Take `CCOc1cc(-c2cccnc2OC)nc2cc(C(=O)NCCc3nnc[nH]3)ccc12` [Compound I-180, 4-ethoxy-2-(2-methoxypyridin-3-yl)-N-[2-(4H-1,2,4-triazol-3-yl)ethyl]quinoline-7-carboxamide]: on hNAMPT protein, the inhibition at 1 µM amounted to 83% and the IC50 was more than 100 nM. For the same compound, the viability at 1.667 µM in the experiment on PC3 cells came out at 2%.
With `CCOc1cc(-c2ccnc(C)c2)nc2cc(C(=O)NCCCc3cnn[nH]3)ccc12` [Compound I-117, 4-ethoxy-2-(2-methylpyridin-4-yl)-N-[3-(1H-1,2,3-triazol-5-yl)propyl]quinoline-7-carboxamide], at hNAMPT protein, the inhibition at 1 µM was 100% and the IC50 is less than 10 nM. Moreover, the viability at 1.667 µM in the experiment with PC3 cells came out at 2%.

Broadly, the inhibition is how much of the control response was suppressed. The term IC50 denotes the concentration at which inhibition is half-maximal. High values mean weaker potency, low ones greater potency.
